What follows are compounds tested against CRISPR/Cas9 from Streptococcus pyogenes (SpyCas9) (Streptococcus pyogenes serotype M1, UniProt Q99ZW2) (assay: cell-based). Settings: not given.
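Wherever IC50 is given: Cell-based reporter with a SpyCas9 target site placed in EGFP, where NHEJ repair of the cut restores the reading frame, read-out is the share of EGFP-positive cells, lowered by inhibitors.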

Chain of CRISPR/Cas9 from Streptococcus pyogenes (SpyCas9) (Q99ZW2 whole entry): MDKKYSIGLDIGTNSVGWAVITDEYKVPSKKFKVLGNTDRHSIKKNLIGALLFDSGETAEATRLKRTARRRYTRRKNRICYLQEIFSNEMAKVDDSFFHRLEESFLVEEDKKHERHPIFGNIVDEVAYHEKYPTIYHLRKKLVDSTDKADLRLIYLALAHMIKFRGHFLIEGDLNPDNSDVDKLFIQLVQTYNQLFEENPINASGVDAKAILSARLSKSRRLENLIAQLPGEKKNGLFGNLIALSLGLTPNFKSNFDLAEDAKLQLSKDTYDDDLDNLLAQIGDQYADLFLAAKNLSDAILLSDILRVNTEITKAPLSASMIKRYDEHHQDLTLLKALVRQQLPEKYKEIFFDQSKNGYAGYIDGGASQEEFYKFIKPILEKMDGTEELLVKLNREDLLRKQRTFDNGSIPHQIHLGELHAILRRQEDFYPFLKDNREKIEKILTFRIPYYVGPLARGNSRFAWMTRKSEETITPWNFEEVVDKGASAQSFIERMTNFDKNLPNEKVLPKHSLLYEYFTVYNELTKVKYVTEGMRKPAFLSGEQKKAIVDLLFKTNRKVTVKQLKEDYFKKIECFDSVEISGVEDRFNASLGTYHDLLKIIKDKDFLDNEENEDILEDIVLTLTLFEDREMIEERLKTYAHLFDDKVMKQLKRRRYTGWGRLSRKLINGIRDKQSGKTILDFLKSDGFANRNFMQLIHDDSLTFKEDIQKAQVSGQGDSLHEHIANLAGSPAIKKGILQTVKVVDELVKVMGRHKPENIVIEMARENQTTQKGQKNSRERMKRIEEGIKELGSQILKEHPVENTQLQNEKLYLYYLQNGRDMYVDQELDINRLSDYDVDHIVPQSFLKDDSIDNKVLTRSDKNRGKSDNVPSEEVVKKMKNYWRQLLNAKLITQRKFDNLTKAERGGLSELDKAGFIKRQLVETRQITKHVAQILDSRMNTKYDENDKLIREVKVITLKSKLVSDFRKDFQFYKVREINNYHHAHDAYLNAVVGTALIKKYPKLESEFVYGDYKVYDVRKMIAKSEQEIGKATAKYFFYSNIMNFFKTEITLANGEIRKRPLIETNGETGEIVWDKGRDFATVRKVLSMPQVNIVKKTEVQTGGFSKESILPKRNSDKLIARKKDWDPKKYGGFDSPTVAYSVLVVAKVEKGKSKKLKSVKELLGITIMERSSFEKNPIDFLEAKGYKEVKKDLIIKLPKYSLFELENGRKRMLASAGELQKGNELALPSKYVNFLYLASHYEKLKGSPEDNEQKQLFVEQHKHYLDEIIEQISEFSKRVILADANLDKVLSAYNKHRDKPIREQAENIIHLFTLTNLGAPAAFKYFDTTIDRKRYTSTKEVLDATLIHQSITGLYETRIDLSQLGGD

Row | SMILES | IC50
1 | O=C(/C=C/c1ccc(O)cc1)c1ccccc1 [Compound 12] | 10 to 100 µM
2 | C=CS(=O)(=O)c1ccccc1 [Compound 32] | 10 to 100 µM
3 | CC1=CC(=O)c2c(O)cccc2C1=O [Compound 48] | 1 to 10 µM
4 | COc1cc(/C=C/C(=O)CC(=O)/C=C/c2ccc(O)c(OC)c2)ccc1O [Compound 75] | 10 to 100 µM
5 | O=C(/C=C/c1ccc(Br)cc1)c1ccccc1 [Compound 101] | 10 to 100 µM
6 | COc1ccc(C(=O)/C=C/c2ccccc2)cc1 [Compound 102] | 10 to 100 µM
7 | O=C(/C=C/c1cccc(Cl)c1)c1ccccc1 [Compound 104] | 10 to 100 µM
8 | O=C(/C=C/c1ccccc1)c1ccc(Cl)cc1 [Compound 105] | 10 to 100 µM
9 | O=C(/C=C/c1cc(F)c(F)c(F)c1)c1ccccc1 [Compound 110] | 10 to 100 µM
10 | COc1ccc(/C=C/C(=O)c2ccccc2)cc1 [Compound 111] | 10 to 100 µM
11 | C#CCCOc1cccc(/C=C/S(=O)(=O)F)c1 [Compound 119] | 1 to 10 µM
12 | O=C(/C=C/c1ccccc1Br)c1ccccc1 [Compound 127] | 10 to 100 µM
13 | O=C(O)/C=C/c1cccc(O)c1 [Compound 801] | > 100 µM
14 | O=C(O)/C=C/c1ccc(O)cc1 [Compound 802] | > 100 µM
15 | COc1cc(/C=C/C(=O)O)ccc1O [Compound 803] | > 100 µM
16 | COC(=O)/C=C/c1ccc(O)cc1 [Compound 804] | > 100 µM
17 | COc1cc(/C=C/c2ccc(O)cc2)cc(OC)c1 [Compound 811] | > 100 µM
18 | O=C(/C=C/c1ccc(O)cc1)c1ccc(O)cc1O [Compound 813] | > 100 µM
19 | Oc1cc(O)c2c(c1)O[C@H](c1ccc(O)c(O)c1)[C@@H](O)C2 [Compound 814] | > 100 µM
20 | O=c1c(O)c(-c2ccc(O)cc2)oc2ccccc12 [Compound 815] | > 100 µM
21 | O=C1CC(c2ccccc2O)Oc2ccccc21 (stereo not drawn) [Compound 816] | > 100 µM
22 | O=C1CC(c2cccc(O)c2)Oc2ccccc21 (stereo not drawn) [Compound 817] | > 100 µM
23 | C=C(C)C(N)=O [Compound 825] | > 100 µM

Row | SMILES | IC50
24 | COC(=O)/C=C/C(=O)OC [Compound 826] | > 100 µM
25 | C/C(C=O)=C\c1ccccc1 [Compound 827] | > 100 µM
26 | C=CC(=O)OC [Compound 828] | > 100 µM
27 | C=CC(=O)N(C)C [Compound 829] | > 100 µM
28 | C=CS(C)(=O)=O [Compound 830] | > 100 µM
29 | CN(C)C/C=C/C(=O)Nc1cc2c(Nc3ccc(F)c(Cl)c3)ncnc2cc1O[C@@H]1CCOC1 [Compound 833] | > 100 µM
30 | CNC(=O)c1ccccc1Sc1ccc2c(/C=C/c3ccccn3)n[nH]c2c1 [Compound 834] | > 100 µM
31 | N#C/C(=C1/SC[C@@H](c2ccc(Cl)cc2Cl)S1)n1ccnc1 [Compound 835] | > 100 µM
32 | Cc1ccc(=O)n(-c2ccccc2)c1 [Compound 836] | > 100 µM
33 | C/C(O)=C(\C#N)C(=O)Nc1ccc(C(F)(F)F)cc1 [Compound 837] | > 100 µM
34 | CCN1C(=O)C=CC1=O [Compound 838] | > 100 µM
35 | O=C(/C=C/c1ccccc1)N1CCCCC1 [Compound 840] | > 100 µM
36 | O=C(/C=C/c1ccccc1)N1CCOCC1 [Compound 841] | > 100 µM
37 | CCN(CC)C(=O)/C=C/c1ccccc1 [Compound 842] | > 100 µM
38 | CN(C)C(=O)/C=C/c1ccccc1 [Compound 843] | > 100 µM
39 | CC(C)(C)OC(=O)N1CCN(C(=O)/C=C/c2ccccc2)CC1 [Compound 844] | > 100 µM
40 | O=C(/C=C/c1ccccc1)N1CCN(Cc2ccccc2)CC1 [Compound 845] | > 100 µM
41 | COc1ccc(CNC(=O)/C=C/c2ccccc2)cc1 [Compound 846] | > 100 µM
42 | CS(=O)(=O)/C=C/c1ccccc1 [Compound 847] | > 100 µM
43 | O=c1c(O)c(-c2ccc(O)c(O)c2)oc2cc(O)cc(O)c12 [Compound 850] | > 100 µM
44 | NC(=O)/C=C/c1ccccc1 [Compound 851] | > 100 µM
45 | CCOCCNC(=O)/C=C/c1ccccc1 [Compound 853] | > 100 µM
46 | O=C(/C=C/c1ccccc1)NC1CC1 [Compound 854] | > 100 µM

Row | SMILES | IC50
47 | O=C(/C=C/c1ccccc1)N1CCCC1 [Compound 855] | > 100 µM
48 | O=C(/C=C/c1ccccc1)Nc1c(F)cccc1F [Compound 859] | > 100 µM
49 | CSc1ccc(NC(=O)/C=C/c2ccccc2)cc1 [Compound 860] | > 100 µM
50 | O=C(/C=C/c1ccccc1)Nc1ccc([N+](=O)[O-])cc1 [Compound 861] | > 100 µM
51 | O=C(/C=C/c1ccccc1)Nc1cccnc1 [Compound 862] | > 100 µM
52 | CN(C(=O)/C=C/c1ccccc1)c1ccccc1 [Compound 863] | > 100 µM
53 | O=S(=O)(/C=C/c1ccccc1)N1CCOCC1 [Compound 864] | > 100 µM
54 | NS(=O)(=O)/C=C/c1ccccc1 [Compound 865] | > 100 µM
55 | CC(C)(C)OC(=O)N1CCN(S(=O)(=O)/C=C/c2ccccc2)CC1 [Compound 866] | > 100 µM
56 | CCOCCNS(=O)(=O)/C=C/c1ccccc1 [Compound 867] | > 100 µM
57 | CCN(CC)S(=O)(=O)/C=C/c1ccccc1 [Compound 868] | > 100 µM
58 | O=S(=O)(/C=C/c1ccccc1)N1CCN(Cc2ccccc2)CC1 [Compound 869] | > 100 µM
59 | CC1CC(C)CN(S(=O)(=O)/C=C/c2ccccc2)C1 (stereo not drawn) [Compound 870] | > 100 µM
60 | CC(C)N(C(C)C)S(=O)(=O)/C=C/c1ccccc1 [Compound 871] | > 100 µM
61 | O=S(=O)(/C=C/c1ccccc1)N1CCCCC1 [Compound 872] | > 100 µM
62 | CCN(Cc1ccccc1)S(=O)(=O)/C=C/c1ccccc1 [Compound 873] | > 100 µM
63 | CCC1(O)C(=O)OCc2c1cc1n(c2=O)Cc2cc3ccccc3nc2-1 (stereo not drawn) [Compound 874] | > 100 µM
64 | CN(C)C/C=C/C(=O)O [Compound 876] | > 100 µM
65 | O=S(=O)(/C=C/c1ccccc1)Oc1ccc(I)cc1 [Compound 877] | > 100 µM
66 | CC(C)c1ccc(OS(=O)(=O)/C=C/c2ccccc2)cc1 [Compound 878] | > 100 µM
67 | O=S(=O)(/C=C/c1ccccc1)Oc1cccc(F)c1 [Compound 879] | > 100 µM
68 | O=S(=O)(/C=C/c1ccccc1)Oc1ccc(Br)cc1 [Compound 880] | > 100 µM
69 | O=S(F)(=Nc1ccc(Br)cc1)Oc1ccc(Br)cc1 (stereo not drawn) [Compound 881] | > 100 µM

Row | SMILES | IC50
70 | O=S(F)(=Nc1ccc(Br)cc1)N1CCC(Cc2ccccc2)CC1 (stereo not drawn) [Compound 882] | > 100 µM
71 | CN(c1ccccc1)S(=O)(=O)F [Compound 883] | > 100 µM
72 | Cc1cccc(C2CCCN2S(=O)(=O)F)c1 (stereo not drawn) [Compound 884] | > 100 µM
73 | O=C1C=CCCC1 [Compound 885] | > 100 µM
74 | O=C(/C=C/c1ccc2c(c1)OCO2)c1ccccc1 [Compound 886] | > 100 µM
75 | CN(C)c1ccc(/C=C/C(=O)c2ccccc2)cc1 [Compound 887] | > 100 µM
76 | O=C1C=CCC1 [Compound 888] | > 100 µM
77 | CC(=O)/C=C/c1cc2c(cc1Br)OCO2 [Compound 889] | > 100 µM
78 | CC(=O)/C=C/c1ccccc1 [Compound 890] | > 100 µM
79 | COc1ccc(/C=C/S(=O)(=O)c2ccc(Cl)cc2)cc1 [Compound 892] | > 100 µM
80 | O=S(=O)(/C=C/c1ccccc1)c1ccc(Cl)cc1 [Compound 893] | > 100 µM
81 | C=C(C)C(=O)N(CC)CC [Compound 894] | > 100 µM
82 | O=C(/C=C/c1cccc(Cl)c1)c1cccc(Cl)c1 [Compound 895] | > 100 µM
83 | O=C(/C=C/c1cccc(Br)c1)c1cccc(Br)c1 [Compound 896] | > 100 µM
84 | COc1ccc(COCCCCC2=C3CCC(C)CC3CC2=O)cc1 (stereo not drawn) [Compound 897] | > 100 µM
85 | O=Cc1cc2c(cc1C#Cc1ccccc1)OCO2 [Compound 898] | > 100 µM
86 | O=C(/C=C/c1ccccc1)c1ccc(Br)cc1 [Compound 900] | > 100 µM
87 | O=C(/C=C\n1cnc(-c2cc(C(F)(F)F)cc(C(F)(F)F)c2)n1)NNc1ccccn1 [Compound 901] | 1 to 10 µM
88 | COc1cc(-c2ncn(/C=C\C(=O)OC(C)C)n2)cc(C(F)(F)F)c1 [Compound 902] | 1 to 10 µM
89 | O=C(/C=C\n1cnc(-c2cc(C(F)(F)F)cc(C(F)(F)F)c2)n1)N1CC(F)(F)C1 [Compound 903] | 1 to 10 µM
90 | NC(=O)/C(=C/n1cnc(-c2cc(C(F)(F)F)cc(C(F)(F)F)c2)n1)c1cncnc1 [Compound 904] | 1 to 10 µM
91 | COc1cc(/C=C/C(=O)N2CCC=CC2=O)cc(OC)c1OC [Compound 905, Piperlongumine] | 1 to 10 µM

The compounds below were run against T1, SpyCas9 (Streptococcus pyogenes serotype M1, UniProt Q99ZW2) (assay: Inhibition of plasmid-expressed SpyCas9 editing of endogenous genes in HEK293 cells, T7E1 test). Settings: HEK293 cells transfected with AAVS1-AS2 and pST-Cas9 plasmids; 10 μM compound; no-drug group 22.4% and 35.1%.
T1 construct: expressed in transfected cells; host or cells: HEK293
Type: cell-based
Description: HEK293 cells (10^5 cells/well) were seeded on a 24-well plate. 24 hours after inoculation, cells were transfected with 200 ng AAVS1-AS2 and 200 ng pST-Cas9 plasmid or 200 ng EMX1 and 200 ng pST-Cas9 plasmid in Opti-MEM medium. 6 hours after transfection, DMEM supplemented with 10% FBS and 10 μM drug (Compound 49) was used to replace Opti-MEM. The positive control for Cas9 activity was 200 ng AAVS1-AS2 and 200 ng pST-Cas9 plasmid or 200 ng EMX1 and 200 ng pST-Cas9 plasmid without drug. After the gene editing was completed, the cell genomic DNA was extracted, and the gene editing efficiency was tested by the T7E1 method (see Guschin, D. Y. et al. Methods Mol. Biol. 649, 247-256 (2010))).
The method of this example was the same as in Example 2.

T1 sequence (Q99ZW2 whole entry, the tested form may be a part): as the sequence (Q99ZW2 whole entry) above

Row | SMILES | gene modification rate
92 | CC1=CC(=O)c2c(O)cccc2C1=O [Compound 48] | 0%

Same assay, conditions: HEK293 cells transfected with EMX1 and pST-Cas9 plasmids; 10 μM compound; no-drug group 26.5% and 27.9%

Row | SMILES | gene modification rate
93 | CC1=CC(=O)c2c(O)cccc2C1=O [Compound 48] | 0%
